Reference: patent US10703728B1, “Crystalline form of olaparib and a process for preparing the same” (SCINOPHARM TAIWAN, LTD., priority 2019, dated 2020)
Values after ≈ are worked out from the molar mass of the structure shown.

Tests used:
[1] = Solubility of olaparib at room temperature; assay type: physicochemical; conditions: for solubility: organic solvent or mixture
Procedure: (§1) “Solvent” refers to a liquid substance capable of dissolving olaparib at a concentration of at least about 2.5% (w/w) at 60° C.

[2] = Solubility of olaparib at 60° C. in solvents and anti-solvents; assay type: physicochemical
Procedure: as §1
In the Tables above, examples of good solvents include, but are not limited to, an alcohol (e.g., methanol or ethanol), acetic acid, dimethylacetamide, dimethyl sulfoxide and pyridine. Examples of poor solvents (anti-solvents) include, but are not limited to, water, toluene, acetonitrile, cyclohexane, isopropanol, tetrahydrofuran, n-butanol, xylenes, ethyl acetate and n-heptane.

O=C(c1cc(Cc2n[nH]c(=O)c3ccccc23)ccc1F)N1CCN(C(=O)C2CC2)CC1 [olaparib, 4-[(3-[(4-cyclopropylcarbonyl)piperazin-4-yl]carbonyl)-4-fluorophenyl]methyl(2H)phthalazin-1-one]
Solubility of olaparib ([1]; AcOH): >20.0 wt % | Solubility of olaparib (Summary, solvents for olaparib) ([1]; AcOH, DMSO): >15% (w/w) | Solubility of olaparib ([1]; DMSO): >19.1 wt % | solubility ([1]; acetic acid (AcOH), AcOH): > 210 mg/mL | solubility ([1]; dimethyl sulfoxide (DMSO), DMSO): > 210 mg/mL | Solubility of olaparib ([2]; ACN): <2.1 wt % | Solubility of olaparib ([2]; DMAc): >23.5 wt % | Solubility of olaparib (Summary, solvents for olaparib) ([2]; DMAc, Pyridine): >15% (w/w) | Solubility of olaparib ([2]; EA): <1.8 wt % | Solubility of olaparib ([2]; EtOH): 2.6-2.9 wt % | Solubility of olaparib (Summary, solvents for olaparib) ([2]; EtOH, MeOH): 2.5-10% (w/w) | Solubility of olaparib ([2]; IPA): <2.1 wt % | Solubility of olaparib ([2]; MeOH): 6.7-8.8 wt % | Solubility of olaparib ([2]; Pyridine): >21.5 wt % | Solubility of olaparib ([2]; THF): <1.9 wt % | Solubility of olaparib ([2]; Toluene): <1.9 wt % | Solubility of olaparib (Summary, anti-solvents for olaparib) ([2]; Toluene, ACN, Cyclohexane, IPA, THF, EA, Xylenes, n-heptane, Water, n-butanol): <2.5% (w/w) | Solubility of olaparib ([2]; Xylenes): <1.9 wt % | solubility ([2]; acetonitrile (ACN), organic solvent or mixture, ACN): < 16.2 mg/mL | Solubility of olaparib ([2]; cyclohexane): <2.1 wt % | solubility ([2]; dimethylacetamide (DMAc), organic solvent or mixture, DMAc): > 220 mg/mL | solubility ([2]; ethanol (EtOH), organic solvent or mixture, EtOH): 21 to 23 mg/mL (≈ 48.3 to 52.9 mM) | solubility ([2]; ethyl acetate (EA), organic solvent or mixture, EA): < 16.2 mg/mL | solubility ([2]; isopropanol (IPA), organic solvent or mixture, IPA): < 16.2 mg/mL | solubility ([2]; methanol (MeOH), organic solvent or mixture, MeOH): 53 to 70 mg/mL (≈ 122 to 161 mM) | Solubility of olaparib ([2]; n-butanol): <2.1 wt % | Solubility of olaparib ([2]; n-heptane): <2.4 wt % | solubility ([2]; organic solvent or mixture, Pyridine): > 210 mg/mL | solubility ([2]; organic solvent or mixture, Toluene): < 16.9 mg/mL | solubility ([2]; organic solvent or mixture, Xylenes): < 16.2 mg/mL | solubility ([2]; organic solvent or mixture, cyclohexane): < 16.2 mg/mL | solubility ([2]; organic solvent or mixture, n-butanol): < 16.9 mg/mL | solubility ([2]; organic solvent or mixture, n-heptane): < 16.2 mg/mL | solubility ([2]; tetrahydrofuran (THF), organic solvent or mixture, THF): < 16.9 mg/mL | Solubility of olaparib ([2]; water): <1.6 wt % | solubility ([2]; water): < 16.2 mg/mL
